Laboratory results: US20100324285A1, “ANTIINFLAMMATORY AGENT COMPRISING 2-AMINOPHENOL OR DERIVATIVE THEREOF AS ACTIVE INGREDIENT” (priority 2006, published 2010)

Columns and labels:
[1] = target: T1, COX-1 (Ovis aries, UniProt P05979); assay: COX Inhibitor Screening Assay Kit, COX-1; assay type: biochemical
T1 construct: purchased Cayman Chemical Company
T1 sequence (P05979 25-600): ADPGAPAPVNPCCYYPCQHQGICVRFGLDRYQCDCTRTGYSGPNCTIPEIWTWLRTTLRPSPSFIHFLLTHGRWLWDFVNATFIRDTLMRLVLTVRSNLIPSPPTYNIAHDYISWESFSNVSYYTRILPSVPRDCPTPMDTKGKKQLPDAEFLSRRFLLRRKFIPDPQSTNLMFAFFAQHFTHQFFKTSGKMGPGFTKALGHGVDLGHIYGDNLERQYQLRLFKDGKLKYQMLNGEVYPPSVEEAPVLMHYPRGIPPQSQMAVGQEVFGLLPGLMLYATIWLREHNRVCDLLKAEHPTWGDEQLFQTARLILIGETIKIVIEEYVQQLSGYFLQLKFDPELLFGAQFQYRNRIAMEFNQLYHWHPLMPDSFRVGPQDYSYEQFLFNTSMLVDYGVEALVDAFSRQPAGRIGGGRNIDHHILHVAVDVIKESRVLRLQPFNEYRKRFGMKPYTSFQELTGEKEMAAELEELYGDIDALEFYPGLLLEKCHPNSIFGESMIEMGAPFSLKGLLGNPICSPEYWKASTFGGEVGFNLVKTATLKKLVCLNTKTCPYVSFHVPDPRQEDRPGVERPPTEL
Description: Fifty percent inhibitory concentration (IC50) means the concentration of test sample necessary for inhibiting PGE2 synthesis by 50% compared to non-inhibitory control sample. It can be also determined by measuring the amount of PGE2 produced by adding test samples to cells having cyclooxygenase activity. COX-1/COX-2 ratio means the ratio of […], and the higher the ratio is, the more specific to COX-2 the agent is.
To verify the results of Experiment 2, it was investigated that whether the activity of COXs, essential enzymes for PGE2 synthesis system, can be inhibited. […] An experimental system without the test samples was set as control. The residual activity of COX-1 or COX-2 was determined as relative activity versus control.

[2] = system: iNOS; assay: Amount of iNOS in cell extracts, western blotting; assay type: cell-based, mouse; details: RAW264.7 cell extracts of Experiment 2, anti-iNOS antibody
Description: In addition, the amount of iNOS in the cell extracts of this experiment was measured by western blotting analysis using an anti-iNOS antibody.

[3] = system: Mouse melanoma cell line B16; assay: Living cell rate of B16 cells; details: 5 days, versus control
Description: As control, a system with no test sample was provided. […] The amount of protein was measured by conventional Bradfordmethod and the amount of melanin per 1 mg of protein was calculated. The amount of melanin (%) was calculated according to Formula 4, and the living cell rate (%) was calculated according to Formula 5.

[4] = system: NHDF, normal fibroblast from human fetus; assay: Collagen production by NHDF, Sircol Collagen Assay; assay type: cell-based; details: 6 days; for Collagen production (μg/well), AA-2G addition: 50 μM AA-2G; for Collagen production (μg/well), AA-2G free: no AA-2G
Description: NDHF cells (commercialized by Kurabo Industries Ltd. Osaka, Japan, catalog No. “KF-4001”) were suspended in D-MEM supplemented with 10 (v/v) % FCS to give a concentration of 5×10^5 cells/ml, and the suspension was sown in 96-well microplate by 50 μl per well. […] After cultured at 37° C. for a day, the supernatant was removed and any one of the samples and D-MEM medium supplemented with 10 (v/v) % FCS containing 100 μM AA-2G (a final concentration of 50 μM) or D-MEM medium supplemented with 10 (v/v) % FCS not containing AA-2G were added by 100 μl per well, and cultured at 37° C. for 3 days in 5 (v/v) % CO2 atmosphere. […] After the culture supernatant was removed, 1 M acetate solution containing 1 mg/ml of pepsin (commercialized by SIGMA, Inc.) was added by 50 μl per well and the plate was shaken at room temperature for 4 hours with a plate mixer for pepsin digestion. The digest was collected in a 1.5 ml-tube by pipetting, admixed with 200 μl per tube of Dye Reagent of Sircol Collagen Assay Kit (commercialized by Biocolor Ltd.), and allowed to react at room temperature for 30 minutes by inversely mixing. The supernatant of the reaction mixture was completely removed bycentrifugation (4° C., 15,000 rpm, 10 minutes), […] dissolved in 50 μl of 1 N NaOH, the resulting supernatant was measured for its absorbance at 560 nm to 650 nm. […] According to the standard curve, the amount of collagen in the pepsin digest of the cells was calculated.

[5] = system: β-hexosaminidase; assay: Direct inhibition of β-hexosaminidase activity of whole granule extract; assay type: biochemical, rat; details: 40 μM added
Description: Separately, the whole granule extract described above was injected into a 96-well microplate by 50 μl per well. Each well was admixed with 50 μl of 0.1 M citrate buffer (pH 4.5) containing 1 mM PNAC and warmed at 37° C. for one hour. The reaction was stopped by adding 50 μl of 0.1 M sodium carbonate (pH 10.5), measuring the absorbance at 405 to 650 nm. As control, the same measurement as described above was carried out using BSA-containing Siraganian buffer alone. […] The resultant data was obtained by averaging the measurement values from 3 wells each of the test sample or the whole granule extract.

[6] = read-out: residual activity of COX-1

Compound: Nc1cc2nc3ccccc3oc-2cc1=O [2-Aminophenoxazine-3-one, 2-aminophenoxazine-3-one]
- IC50 ([1]; PGE2 from arachidonic acid, read-out: IC50 COX-1): 6.44 µM
- remaining activity at 1.9 µM [1, 6]: 89%
- remaining activity at 3.8 µM [1, 6]: 59%
- remaining activity at 7.6 µM [1, 6]: 44%
- amount of iNOS [2]: decreased depending on the 2-aminophenoxazine-3-one concentration
- Living cell rate (%) ([3]; 0.5 μM): 107%
- Living cell rate (%) ([3]; 1 μM): 95%
- Living cell rate (%) ([3]; 2 μM): 77%
- Collagen production (μg/well), AA-2G addition ([4]; QA 0.125 μM): 1.32 ± 0.45 μg/well
- Collagen production (μg/well), AA-2G free ([4]; QA 0.125 μM): 0.66 ± 0.05 μg/well
- Collagen production (μg/well), AA-2G addition ([4]; QA 0.25 μM): 1.64 ± 0.21 μg/well
- Collagen production (μg/well), AA-2G free ([4]; QA 0.25 μM): 0.64 ± 0.06 μg/well
- Collagen production (μg/well), AA-2G addition ([4]; QA 0.5 μM): 1.57 ± 0.18 μg/well
- Collagen production (μg/well), AA-2G free ([4]; QA 0.5 μM): 0.63 ± 0.07 μg/well
- Collagen production (μg/well), AA-2G addition ([4]; QA 1.0 μM): 1.03 ± 0.22 μg/well
- Collagen production (μg/well), AA-2G free ([4]; QA 1.0 μM): 0.71 ± 0.10 μg/well
- Collagen production (μg/well), AA-2G addition ([4]; QA 2.0 μM): 0.58 ± 0.06 μg/well
- Collagen production (μg/well), AA-2G free ([4]; QA 2.0 μM): 0.70 ± 0.16 μg/well
- inhibition rate of β-hexosaminidase activity [5]: −9.9%
